Patent US11014934B2, “Antiseptic drug” (AO “TATKHIMFARMPREPARATY”, priority 2017, dated 2021)
Read-outs that look alike come from different tables or passages of the source.

How the values were obtained:
[1] = system: E. coli CDC F-50; assay: Antiseptic activity on rat skin; type: in vivo; details: E. coli CDC F-50 on rat skin; antiseptic concentration 0.2%; exposure time 5 min; n = 6
Method: The study of the antiseptic activity of compound I in rats […] was carried out in accordance with [R 4.2.2643-10 Metody laboratornykh issledovaniy i ispytaniy mediko-profilakticheskikh dezinfektsionnykh sredstv dlya otsenki ikh effektivnosti i bezopasnosti: Rukovodstvo.—M: Federal'nyy tsentr gigiyeny i epidemiologii Rospotrebnadzora, 2010.—S. 615. R 4.2.2643-10 Laboratory methods for the study and testing of medical prophylactic disinfectants to assess their effectiveness and safety: Guide.—M.:: Federal Center for Hygiene and Epidemiology of Rospotrebnadzor, 2010.—P. 615]. Experiments were carried out on male Wistar rats with a body weight of 180-250 g.
A culture of E. coli CDC F-50, grown on dense nutrient medium for (18-20) hours, was washed with sterile isotonic chloride solution, centrifuged at 5000 rpm for 5 minutes, the supernatant was drained and cells were resuspended with sterile isotonic sodium chloride solution.
The bacterial suspension of microorganisms was brought to a turbidity of […] according to McFarland, which corresponds to a concentration of 1.5×10^7 cells/ml.
Animals were formed in 5 groups of 6 animals each. All manipulations with animals were performed under isoflurane anesthesia (4%—induction of anesthesia (2 min, 1 l/min), 2%—basis narcosis). A portion of 5×5 cm was shaved with a hair clipper on the dorsal part of the body of the animal.
A 0.25 ml microbial suspension containing 1×10^7 CFU of E. coli CDC F-50 was applied to the shaved portion of the rat back with a dispenser and distributed with a sterile disposable spatula over the entire square area. It was left for 2-3 minutes until dry.
Then, a gauze cloth (5×5 cm) was applied to the skin of rats for 5 minutes. In the experimental group, the tissue was pre-wetted with 1 ml of 0.2% solution of compound I, and in the positive control groups, the tissue was dipped in 1 ml of 0.2% miramistin, benzalkonium chloride and chlorhexidine. In the negative control group, the cloth was immersed in 1 ml of sterile saline. […]
After the time required for the cultivation of microorganisms of this species, the results were counted according to the number of colonies grown on the Petri dish. […] After counting the number of colonies grown on Petri dishes, the density of contamination per 1 cm^2 of the surface and the percentage of disinfection were calculated, taking the number of colonies removed from control surfaces and not exposed to antiseptics action as 100%. The percentage of growth inhibition of E. coli CDC F-50 was calculated by the formula: […]

[2] = system: Rhizopus oryzae RCPF F-1537/1722; assay: Antifungal activity, 2-fold serial dilutions in Saburo glucose broth; type: cell-based, Rh. oryzae; details: for MIC: read-out: The value of the MIC
Method: The study of the antifungal activity of compound I in vitro was carried out in accordance with [Metodicheskiye rekomendatsii No 2. Mikologicheskoye issledovaniye ob″yektov okruzhayushchey sredy i opredeleniye protivogribkovoy aktivnosti razlichnykh veshchestv.—GOU DPO SPbMAPO NII meditsinskoy mikologii im. P. N. Kashkina, GBOU VPO SZGMU im. I. I. Mechnikova Minzdrava. SPb.: Izd. Dom SPbMAPO.—2008.—S. 16. Methodological recommendations No 2. Mycological examination of environmental objects and determination of antifungal activity of various substances.—State Educational Institution of St. Petersburg Medical Academy of Postgraduate Education with Scientific Research Institute of Medical Mycology named after P. N. Kashkin, State Educational Institution of Higher Professional Education North-West State Medical University named after I. I. Mechnikov, Ministry of Health. St. Petersburg.:: Publishing House SPbMAPO.—2008.—P. 16].
The study of the antifungal activity of substances in vitro was carried out in a liquid nutrient medium (Saburo glucose broth) in biological tubes by the method of 2-fold serial dilutions. In test tubes, three parallel series of dilutions of the test substance were prepared in the following way.
Saburo's liquid broth was sterilely poured in 3 ml into each tube; 4.5 ml was poured into the first tube of the row. A total of 14 tubes were used in a row; of which the last was a control one. […] The growth of cultures was initially assessed visually, comparing the growth of microorganisms in the presence of test compounds with the growth of culture without them. […] The first lowest concentration of the substance (from a series of consecutive dilutions), where the growth of fungi was suppressed or not visually determined, was considered the minimum inhibitory concentration (MIC).
For the preparation of inoculum, were respectively used pure (2-5) days cultures of yeast and mycelial fungi, grown on Saburo's dense nutrient broth. […] The inoculum was used within 15 minutes after preparation; the purity of the fungal strains was monitored before each experiment. […]

Compound	Growth inhibition rate (M ± SD) [1] [%]	MIC [2] [µg/mL]	MIC ([2]; Rh. nigricans RCPFF-l537/1722) [µg/mL]	The value of the MIC ([2]; Rh. nigricans RCPFF-l537/1722) [µg/mL]
CCCCCCCCCCCCCC(=O)NCCC[N+](C)(C)Cc1ccccc1.O.[Cl-] [Miramistin, benzyldimethyl [3-(myristoylamino)propyl]-ammonium chloride monohydrate]	97.2 ± 1.8	62.5		
CCCCCCCCCCCC[N+](C)(C)Cc1cnc(C[N+](C)(C)CCCCCCCCCCCC)c2c1COC(CC)O2 (stereo not drawn) [Compound I, 5,8-(Bis(methylene (N, N-dimethyl-N-dodecylammonium))-2-ethyl-4H-[1,3]dioxino [4,5-c]pyridiniumdichloride]	97.5 ± 1.7		62.5	
alkyldimethyl(phenylmethyl) ammonium chloride [Benzalconium chloride]	96.8 ± 2.0			15.6
